Measurements: US20210052703A1 (SHANGHAI BENEMAE PHARMACEUTICAL CORPORATION, priority 2018, published 2021)

Tested on: patients with type 2 diabetes
Assay: trial 5C: Beinaglutide with metformin, multicenter, type 2 diabetes
Type: in vivo, human
Details: control group (metformin alone group); 12 weeks of treatment
Text: Note: Covariance analysis was used for comparison between groups. The dependent variable was the change in body weight relative to baseline, and the covariate was baseline. Body weight change from baseline=post-treatment−baseline. Data from 5C test data.

CN(C)C(=N)N=C(N)N [metformin, reference compound]
proportion of subjects with weight loss from the baseline ≥3%: 27.27% | proportion of subjects with weight loss ≥5%: 10.39%
